Experimental data taken from patent US5773423A (priority 1994, dated 1998).
Where two headings read alike, the source gives them in different places. Each block holds one compound with its values, some of them ahead of it.

How the values were obtained:
[1] = molecular target: T1, A1 receptors from rat brain membranes (Rattus norvegicus, UniProt P25099); assay: biochemical; format: binding; settings: rat brain membranes
T1 construct: Rat cerebral cortical and striatal membranes were prepared; from tissue; host or cells: rat brain (cerebral cortical) membranes
T1 sequence (P25099 1-326): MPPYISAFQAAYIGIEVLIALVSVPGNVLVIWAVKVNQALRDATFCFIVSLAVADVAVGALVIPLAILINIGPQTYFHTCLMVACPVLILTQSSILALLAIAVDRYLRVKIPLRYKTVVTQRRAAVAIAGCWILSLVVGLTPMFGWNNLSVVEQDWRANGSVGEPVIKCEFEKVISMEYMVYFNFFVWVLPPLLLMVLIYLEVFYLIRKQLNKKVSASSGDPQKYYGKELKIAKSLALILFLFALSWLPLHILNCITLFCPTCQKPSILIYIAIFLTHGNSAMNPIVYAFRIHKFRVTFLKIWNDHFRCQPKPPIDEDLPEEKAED

[2] = molecular target: T2, A2 receptors from rat striatal membranes (Rattus norvegicus, UniProt P30543); assay: Radioligand binding at A2 (A2a) receptors, displacement of [3H]CGS 21680 (or [3H]NECA with 50 nM CPA) from rat striatal membranes
T2 construct: Rat cerebral cortical and striatal membranes were prepared; from tissue; host or cells: rat striatal membranes

[3] = tested on: locomotor activity in mice; assay: Locomotor activity in mice (open field, Digiscan activity monitor); format: in vivo, mouse (NIH Swiss)
[4] = molecular target: T1, A1 receptors from rat brain membranes
[5] = molecular target: T2, A2 receptors from rat striatal membranes
[6] = rat striatal membranes, displacement of [3H]CGS 21680 (or [3H]NECA + 50 nM CPA), read-out: A2 affinity Ki
[7] = values without SEM, taken from the literature; read-out: A1 affinity Ki; cited from earlier work
[8] = values without SEM, taken from the literature; read-out: A2 affinity Ki; cited from earlier work
[9] = read-out: A1 affinity Ki; values without SEM, taken from the literature; cited from earlier work

T2 sequence (P30543 whole entry): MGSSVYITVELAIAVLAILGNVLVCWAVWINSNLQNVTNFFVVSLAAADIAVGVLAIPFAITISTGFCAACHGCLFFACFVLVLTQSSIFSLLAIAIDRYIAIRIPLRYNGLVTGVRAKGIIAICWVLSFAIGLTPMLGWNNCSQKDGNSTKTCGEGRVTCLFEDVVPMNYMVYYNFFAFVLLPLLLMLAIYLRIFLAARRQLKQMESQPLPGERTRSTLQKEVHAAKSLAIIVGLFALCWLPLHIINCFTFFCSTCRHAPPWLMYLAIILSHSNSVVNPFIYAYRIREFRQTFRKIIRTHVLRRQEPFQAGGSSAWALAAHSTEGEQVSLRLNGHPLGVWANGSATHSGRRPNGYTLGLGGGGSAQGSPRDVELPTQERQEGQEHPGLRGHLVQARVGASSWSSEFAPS

Ki ([1]; Table 2, [3H]PIA, read-out: Ki (A1)): 400 nM
Ki ([2]; Table 2, [3H]CGS 21680, rat striatal membranes, read-out: Ki (A2)): 0.0057 µM
Structure (SMILES): CCNC(=O)[C@H]1O[C@@H](n2cnc3c(N)nc(NCCc4ccc(CCC(=O)NCCN)cc4)nc32)[C@H](O)[C@@H]1O [APEC, reference compound]
reduction in locomotor activity at chosen dose ([3]; APEC 16 μg/kg, 3-IB-MECA 100 μg/kg i.p.): ca. 50%

Ki [2, 6]: 28.9 µM
Structure (SMILES): CN(C)c1ncnc2c1ncn2[C@@H]1O[C@H](CO)[C@@H](O)[C@H]1O [Compound 9, N^6 -dimethyladenosine, reference compound]
Ki [4, 7]: 10 µM

Structure (SMILES): COc1cc(OC)cc(C(CNc2ncnc3c2ncn3[C@@H]2O[C@H](CO)[C@@H](O)[C@H]2O)c2ccccc2C)c1 (some centres unmarked) [Compound 10, N^6-[2-(3,5-dimethoxyphenyl)-2-(2-methylphenyl)ethyl]adenosine]
Ki ([5]; read-out: A2 affinity Ki; cited from earlier work): 4.4 nM

Structure (SMILES): O=S(=O)(O)CCNc1ncnc2c1ncn2[C@@H]1O[C@H](CO)[C@@H](O)[C@H]1O [Compound 11, N^6-(2-sulfo)ethyladenosine]
A1 percent displacement ([4]; at 100 μM, value without SEM, from the literature; cited from earlier work): 41%

Structure (SMILES): OC[C@H]1O[C@@H](n2cnc3c(NC4CCCC4)cc(Cl)nc32)[C@H](O)[C@@H]1O [Compound 15, 1-deaza-2-chloro-N^6-cyclopentyladenosine]
Ki [5, 8]: 13200 nM

Structure (SMILES): NC(=O)[C@H]1O[C@@H](n2cnc3c(N)ncnc32)[C@H](O)[C@@H]1O [Compound 20, 5'-carboxamidoadenosine]
Ki [4, 7]: 0.0726 µM
Ki [5, 8]: 120 nM

Structure (SMILES): CCNC(=O)[C@H]1O[C@@H](n2cnc3c(NC4CCCCC4)ncnc32)[C@H](O)[C@@H]1O [Compound 27, N^6 -cyclohexylNECA]
Ki ([4]; read-out: A1 affinity Ki; cited from earlier work): 0.00043 µM
Ki [5, 8]: 170 nM

Ki ([1]; displacement of [3H]PIA (or [3H]CHA), read-out: A1 affinity Ki): 87.3 ± 13.9 nM
Ki [2, 6]: 0.0953 ± 0.0246 µM
Structure (SMILES): CCNC(=O)[C@H]1O[C@@H](n2cnc3c(NCc4ccccc4)ncnc32)[C@H](O)[C@@H]1O [Compound 28, N^6-benzyladenosine-5'-N-ethyluronamide]
Ki [5, 8]: 95 nM

Ki [2, 6]: 13.5 µM
Structure (SMILES): CCNC(=O)[C@H]1O[C@@H](n2cnc3c(N(C)C)ncnc32)[C@H](O)[C@@H]1O [Compound 29, N^6 -dimethylNECA, reference compound]
Ki [4, 7]: 9.6 µM

Structure (SMILES): Nc1ncnc2c1ccn2[C@@H]1O[C@H](CO)[C@@H](O)[C@H]1O [Compound 33, 7-deazaadenosine, reference compound]
A2 percent displacement ([2]; striatal membranes, 100 µM): 48.3 ± 0.4%
Ki [4, 9]: > 0.1 µM

Structure (SMILES): Nc1[nH]c2ccccc2c2ncnc1-2 [Compound 94, imidazo[4,5-c]quinolin-4-amine]
Ki [5, 8]: 1400 nM

Structure (SMILES): N=C(N)NC(=O)c1nc(Cl)c(N)nc1N [Compound 97, amiloride]
Ki [4, 9]: 11 µM
Ki ([5]; read-out: A2 affinity Ki; values without SEM, taken from the literature; cited from earlier work): 17000 nM

Structure (SMILES): O=c1[nH]c(=O)c2[nH]cnc2[nH]1 [Compound 98, xanthine, reference compound]
inhibition at 100 µM ([2]; read-out: A2 percent displacement): 16.2 ± 2.6%
Ki [4, 7]: 298 µM

Structure (SMILES): Cn1c(=O)[nH]c2nc[nH]c2c1=O [Compound 99, 1-methylX]
Ki [4, 7]: 11.4 µM
Ki [5, 8]: 36200 nM

Ki [2, 6]: 19.4 µM
Structure (SMILES): Cn1c(=O)[nH]c2ncn(C)c2c1=O [Compound 104, 1,7-dimethylX, reference compound]
Ki [4, 7]: 30 µM

Structure (SMILES): Cn1cnc2c1c(=O)[nH]c(=O)n2C [Compound 106, 3,7-dimethylX]
Ki [4, 7]: 83.4 µM
Ki [5, 8]: 187000 nM

Structure (SMILES): CC(C)Cn1c(=O)n(C)c(=O)c2[nH]cnc21 [Compound 108, 3-isobutyl-1-methylxanthine]
Ki [5, 8]: 16000 nM

Structure (SMILES): CCCn1c(=O)c2[nH]c(-c3ccc(S(=O)(=O)O)cc3)nc2n(CCC)c1=O [Compound 135, 8-sulfophenyl-1,3-dipropylX]
Ki [4, 7]: 0.14 µM
Ki [5, 8]: 790 nM

Structure (SMILES): CN1CCC(=C2c3ccccc3C=Cc3ccccc32)CC1 [cyproheptadine, reference compound]
effect on 3-IB-MECA-induced scratching (in words) ([3]; 1 mg/kg): only partial
effect on 3-IB-MECA-induced scratching (in words) ([3]; 10 mg/kg i.p.): eliminated this behavior
